SMILES strings stand for the structures.

In assay [1] the target is T1, Alpha-2A adrenergic receptor (Homo sapiens, UniProt P08913).
T1 sequence (P08913 whole entry): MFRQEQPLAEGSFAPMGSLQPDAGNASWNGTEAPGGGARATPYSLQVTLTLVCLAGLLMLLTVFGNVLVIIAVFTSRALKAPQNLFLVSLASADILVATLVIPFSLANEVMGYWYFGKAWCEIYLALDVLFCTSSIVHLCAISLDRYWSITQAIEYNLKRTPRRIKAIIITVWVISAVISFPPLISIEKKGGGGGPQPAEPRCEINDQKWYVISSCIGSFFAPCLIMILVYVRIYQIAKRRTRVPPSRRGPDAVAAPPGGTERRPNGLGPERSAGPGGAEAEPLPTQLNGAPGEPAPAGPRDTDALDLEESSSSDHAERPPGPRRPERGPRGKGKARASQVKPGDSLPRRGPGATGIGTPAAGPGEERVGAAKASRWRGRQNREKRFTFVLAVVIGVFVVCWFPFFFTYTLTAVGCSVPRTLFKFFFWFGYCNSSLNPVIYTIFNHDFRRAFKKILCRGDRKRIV
Briefly: Binding affinity against Alpha-2A adrenergic receptor.

Assay [2] addresses T2, 5-hydroxytryptamine receptor 2A (Homo sapiens, UniProt P28223). Description: Binding affinity against 5-hydroxytryptamine 2A receptor.
In assay [3] the test system is Mus musculus. Description: Activity in mCPP challenge test, disinhibition measurement after sc administration. It is filed as functional.
The subject of assay [4] is Mus musculus. Description: Activity in mCPP challenge test, exploration measurements after sc administration. It is filed as functional.
Assay [5] concerns the target T3, D(4) dopamine receptor (Homo sapiens, UniProt P21917).
T3 sequence (P21917 whole entry): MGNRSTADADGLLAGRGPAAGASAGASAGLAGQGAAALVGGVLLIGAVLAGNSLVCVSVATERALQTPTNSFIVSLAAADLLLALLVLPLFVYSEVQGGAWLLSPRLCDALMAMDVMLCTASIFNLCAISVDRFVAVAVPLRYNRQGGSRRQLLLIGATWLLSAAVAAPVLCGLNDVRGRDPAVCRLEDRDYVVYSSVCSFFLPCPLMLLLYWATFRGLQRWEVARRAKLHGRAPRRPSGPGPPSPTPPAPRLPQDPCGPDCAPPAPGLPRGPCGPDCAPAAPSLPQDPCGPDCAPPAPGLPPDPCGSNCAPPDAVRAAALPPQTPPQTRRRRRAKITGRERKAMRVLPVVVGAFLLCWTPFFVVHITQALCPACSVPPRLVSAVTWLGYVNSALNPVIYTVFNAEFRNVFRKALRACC
Briefly: Binding affinity against Dopamine receptor D4.

The target of assay [6] is Histamine H1 receptor (Homo sapiens, UniProt P35367). Briefly: Binding affinity against Histamine H1 receptor.
Histamine H1 receptor, sequence (P35367 whole entry): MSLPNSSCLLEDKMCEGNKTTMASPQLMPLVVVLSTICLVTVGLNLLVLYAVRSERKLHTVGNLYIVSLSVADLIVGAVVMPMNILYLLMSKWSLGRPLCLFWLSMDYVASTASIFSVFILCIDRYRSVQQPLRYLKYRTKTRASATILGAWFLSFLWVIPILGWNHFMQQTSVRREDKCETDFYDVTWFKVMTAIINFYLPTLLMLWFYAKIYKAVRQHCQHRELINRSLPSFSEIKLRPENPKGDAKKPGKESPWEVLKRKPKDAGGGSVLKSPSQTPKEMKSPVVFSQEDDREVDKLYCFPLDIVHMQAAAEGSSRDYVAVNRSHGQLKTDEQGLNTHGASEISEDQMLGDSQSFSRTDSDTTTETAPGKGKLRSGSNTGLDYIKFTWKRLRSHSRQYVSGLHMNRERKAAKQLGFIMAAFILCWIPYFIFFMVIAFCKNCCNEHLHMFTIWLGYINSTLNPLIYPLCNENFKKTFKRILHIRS
Assay [7] has as its target T4, 5-hydroxytryptamine receptor 2C (Homo sapiens, UniProt P28335).
T4 sequence (P28335 whole entry): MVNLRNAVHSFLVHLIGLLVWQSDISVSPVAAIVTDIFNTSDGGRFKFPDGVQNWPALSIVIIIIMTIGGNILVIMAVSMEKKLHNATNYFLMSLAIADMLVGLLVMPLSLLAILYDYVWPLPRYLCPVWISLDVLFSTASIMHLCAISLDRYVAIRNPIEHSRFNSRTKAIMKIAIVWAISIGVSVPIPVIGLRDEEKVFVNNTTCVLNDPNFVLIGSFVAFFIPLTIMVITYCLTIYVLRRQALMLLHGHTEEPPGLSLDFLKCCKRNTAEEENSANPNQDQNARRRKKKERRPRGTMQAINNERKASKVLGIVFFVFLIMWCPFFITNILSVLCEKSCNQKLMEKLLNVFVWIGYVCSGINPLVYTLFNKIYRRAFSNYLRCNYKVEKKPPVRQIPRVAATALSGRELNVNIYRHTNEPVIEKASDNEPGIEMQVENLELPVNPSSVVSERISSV
Briefly: Binding affinity against 5-HT2C receptor.

Assay [8] addresses T5, Alpha-1A adrenergic receptor (Homo sapiens, UniProt P35348).
T5 sequence (P35348 whole entry): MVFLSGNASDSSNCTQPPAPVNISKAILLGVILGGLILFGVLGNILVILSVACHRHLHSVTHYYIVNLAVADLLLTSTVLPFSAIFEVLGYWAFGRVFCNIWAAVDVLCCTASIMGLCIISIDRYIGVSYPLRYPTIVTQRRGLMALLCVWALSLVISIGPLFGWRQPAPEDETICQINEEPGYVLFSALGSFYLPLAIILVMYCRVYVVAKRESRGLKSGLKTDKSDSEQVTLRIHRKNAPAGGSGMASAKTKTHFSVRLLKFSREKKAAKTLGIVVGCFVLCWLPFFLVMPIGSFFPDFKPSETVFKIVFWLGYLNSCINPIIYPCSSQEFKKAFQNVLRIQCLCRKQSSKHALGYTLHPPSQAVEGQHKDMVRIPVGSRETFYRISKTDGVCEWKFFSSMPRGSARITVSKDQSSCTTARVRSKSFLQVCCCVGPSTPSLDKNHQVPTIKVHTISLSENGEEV
Briefly: Binding affinity against Alpha-1A adrenergic receptor.

Assay [9] has as its target D(3) dopamine receptor (Homo sapiens, UniProt P35462). Description: Binding affinity against Dopamine receptor D3.
Assay [10] has as its target D(2) dopamine receptor (Homo sapiens, UniProt P14416). Briefly: Binding affinity against Dopamine receptor D2L.
In assay [11] the target is T6, 5-hydroxytryptamine receptor 1D (Homo sapiens, UniProt P28221). Description: Binding affinity against 5-HT1D receptor.
Target sequence in this assay (P28221 whole entry): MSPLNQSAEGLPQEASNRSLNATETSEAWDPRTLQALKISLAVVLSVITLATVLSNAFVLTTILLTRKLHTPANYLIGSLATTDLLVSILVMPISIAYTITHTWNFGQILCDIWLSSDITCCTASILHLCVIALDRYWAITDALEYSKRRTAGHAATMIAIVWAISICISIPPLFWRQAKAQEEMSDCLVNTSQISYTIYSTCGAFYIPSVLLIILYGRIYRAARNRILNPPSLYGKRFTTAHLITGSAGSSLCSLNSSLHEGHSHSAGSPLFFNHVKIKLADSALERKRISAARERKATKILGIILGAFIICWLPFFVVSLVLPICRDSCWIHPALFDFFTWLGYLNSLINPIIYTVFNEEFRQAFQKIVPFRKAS
The target of assay [12] is T6, 5-hydroxytryptamine receptor 1D. Briefly: Binding affinity against 5-hydroxytryptamine 1D receptor.
Target sequence in this assay (P28221 whole entry, looked up): as the sequence (P28221 whole entry) above
Assay [13] addresses T7, 5-hydroxytryptamine receptor 1A (Homo sapiens, UniProt P08908).
T7 sequence (P08908 whole entry): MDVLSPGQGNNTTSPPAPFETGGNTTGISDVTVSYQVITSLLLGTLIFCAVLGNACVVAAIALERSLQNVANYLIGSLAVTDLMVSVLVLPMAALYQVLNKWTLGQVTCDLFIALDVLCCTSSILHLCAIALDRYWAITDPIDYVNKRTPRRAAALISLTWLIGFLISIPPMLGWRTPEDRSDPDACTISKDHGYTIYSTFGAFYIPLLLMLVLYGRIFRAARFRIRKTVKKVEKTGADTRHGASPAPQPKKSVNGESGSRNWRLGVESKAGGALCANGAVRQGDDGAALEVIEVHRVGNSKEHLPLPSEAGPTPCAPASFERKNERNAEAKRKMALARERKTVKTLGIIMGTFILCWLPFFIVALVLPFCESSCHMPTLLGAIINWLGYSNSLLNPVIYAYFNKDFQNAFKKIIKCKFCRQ
Description: Binding affinity against 5-HT1A receptor.

In assay [14] the target is T2, 5-hydroxytryptamine receptor 2A. Briefly: Binding affinity against 5-HT2A receptor.

D(3) dopamine receptor, sequence (P35462 whole entry): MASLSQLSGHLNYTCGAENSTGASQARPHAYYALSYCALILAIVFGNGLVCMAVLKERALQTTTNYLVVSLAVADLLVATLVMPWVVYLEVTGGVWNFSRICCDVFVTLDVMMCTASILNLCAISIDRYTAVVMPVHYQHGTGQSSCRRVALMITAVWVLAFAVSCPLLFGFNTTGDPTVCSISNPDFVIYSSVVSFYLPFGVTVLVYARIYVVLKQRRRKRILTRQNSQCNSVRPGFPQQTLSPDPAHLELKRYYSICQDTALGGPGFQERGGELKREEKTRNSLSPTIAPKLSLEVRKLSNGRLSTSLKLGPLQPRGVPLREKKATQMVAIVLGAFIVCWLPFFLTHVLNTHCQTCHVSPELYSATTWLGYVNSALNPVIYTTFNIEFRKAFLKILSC
T2 sequence (P28223 whole entry): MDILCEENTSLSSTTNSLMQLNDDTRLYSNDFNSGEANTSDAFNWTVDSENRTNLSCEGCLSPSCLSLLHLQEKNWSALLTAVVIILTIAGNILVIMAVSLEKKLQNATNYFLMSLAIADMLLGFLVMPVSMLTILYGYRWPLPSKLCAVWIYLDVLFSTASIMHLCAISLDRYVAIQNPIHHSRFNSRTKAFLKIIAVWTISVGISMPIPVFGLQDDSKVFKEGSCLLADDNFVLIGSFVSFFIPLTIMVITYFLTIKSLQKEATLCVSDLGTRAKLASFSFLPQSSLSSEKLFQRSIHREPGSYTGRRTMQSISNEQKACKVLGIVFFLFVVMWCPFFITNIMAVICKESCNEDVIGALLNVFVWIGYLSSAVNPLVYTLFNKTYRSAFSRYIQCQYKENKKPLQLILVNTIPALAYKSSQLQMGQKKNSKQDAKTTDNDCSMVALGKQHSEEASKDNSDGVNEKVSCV
D(2) dopamine receptor, sequence (P14416 whole entry): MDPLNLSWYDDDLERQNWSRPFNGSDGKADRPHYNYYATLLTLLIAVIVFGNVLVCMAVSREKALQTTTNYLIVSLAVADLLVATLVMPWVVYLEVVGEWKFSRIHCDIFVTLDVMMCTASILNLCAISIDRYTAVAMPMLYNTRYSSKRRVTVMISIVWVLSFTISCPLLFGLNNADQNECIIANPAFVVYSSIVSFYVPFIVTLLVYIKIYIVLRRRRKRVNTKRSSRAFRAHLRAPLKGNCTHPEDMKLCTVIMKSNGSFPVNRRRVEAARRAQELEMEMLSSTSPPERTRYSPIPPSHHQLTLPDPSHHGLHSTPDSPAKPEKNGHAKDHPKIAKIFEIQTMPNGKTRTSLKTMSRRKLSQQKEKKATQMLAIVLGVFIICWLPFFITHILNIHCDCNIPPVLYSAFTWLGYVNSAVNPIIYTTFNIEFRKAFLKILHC

Regarding `CN(C)CC1CC2c3ccccc3Cc3ccncc3N2O1` (stereo not given), the IC50 in [1] was above 1000 nM; in assay [2] it was 389 nM; in assay [5], 251 nM; in assay [6], above 1000 nM; in assay [7], 12.6 nM; in assay [8] it was 398 nM. In addition, the IC50 was 1660 nM in assay [9] and 1910 nM in [10]. Further, the values for the ED50 in assay [3] and in [4] were 0.16 mg/kg and 2.5 mg/kg, respectively.
Consider `CN(C)CC1CC2c3ccccc3Cc3ccccc3N2O1` (stereo not given), for which the figures for the ED50 in assay [3] and in assay [4] were 0.01 mg/kg and above 2.5 mg/kg, respectively.
`CN(C)CC1CC2c3cccnc3Cc3ccccc3N2O1` (stereo not given): the IC50 in assay [1] is above 1000 nM; in [11], above 1000 nM; in [5] it was above 1000 nM; in [12], 912 nM; in [6], 16.6 nM; in [8] it was above 1000 nM. For the same compound, the IC50 in assay [9], in assay [13], in assay [14] and in assay [10] was above 1000 nM each time. The ED50 in assay [3] and in assay [4] was below 2.5 mg/kg throughout.
`CN(C)CC1CC2c3ccccc3Cc3ccc(Cl)cc3N2O1` (stereo not given): the figures for the ED50 in [3] and in assay [4] were 0.16 mg/kg and above 2.5 mg/kg, respectively. The IC50 in assay [5] was 2.63 nM; in assay [6] it was 2.34 nM; in assay [7], 1.05 nM; in assay [8], 14.5 nM.

The values above are taken from ChEMBL document CHEMBL1135009, “2-(Dimethylaminomethyl)-tetrahydroisoxazolopyridobenzazepine derivatives. Synthesis of a new 5-HT(2C) antagonist with potential anxiolytic properties” (Bioorg Med Chem Lett, 2002).
